Reference: ChEMBL document CHEMBL6109124, “Identification of effective anti-osteosarcoma agents via screening of an in-house NQO1-targeted compound library” (Bioorg Med Chem, 2025)

Legend:
[1] = test system: HOS-TE85; assay: Cytotoxicity against human MNNG cells assessed as cell growth inhibition at 1 uM measured after 72 hrs by MTT assay relative to control; assay type: functional; conditions: read-out: GI
[2] = test system: HOS-TE85; assay: Cytotoxicity against human MNNG cells assessed as cell growth inhibition measured after 72 hrs by MTT assay; assay type: functional, cell-based; conditions: HOS-TE85, 72 h
[3] = Cytotoxicity against HUVEC assessed as cell growth inhibition measured after 72 hrs by MTT assay; assay type: toxicity, cell-based; conditions: human, HUVEC cells
[4] = test system: HOS-TE85; assay: Cytotoxicity against human MNNG cells assessed as cell growth inhibition at 10 uM measured after 72 hrs by MTT assay relative to control; assay type: functional; conditions: read-out: GI
[5] = Selectivity index, ratio of IC50 for cytotoxicity against HUVEC to IC50 for cytotoxicity against human MNNG cells; assay type: toxicity, cell-based; conditions: HUVEC and human MNNG cells, read-out: Ratio IC50

N#Cc1nc2c(nc1C#N)-c1cc(F)c(F)cc1/C2=N\NC1CCCCC1
inhibition of growth at 1 µM [1]: 31.2%
IC50 [2]: 2.22 µM
IC50 at 72 h [3]: 17.2 µM
inhibition of growth at 10 µM [4]: 90.4%
selectivity ratio [5]: 7.73
